The assay addresses T1, human CRHR2b (Homo sapiens, UniProt Q13324).
T1 construct: expressed in transfected cells; host or cells: Chinese Hamster Ovary (CHO) cells, transient transfection
T1 sequence (Q13324 1-438 isoform Q13324-2): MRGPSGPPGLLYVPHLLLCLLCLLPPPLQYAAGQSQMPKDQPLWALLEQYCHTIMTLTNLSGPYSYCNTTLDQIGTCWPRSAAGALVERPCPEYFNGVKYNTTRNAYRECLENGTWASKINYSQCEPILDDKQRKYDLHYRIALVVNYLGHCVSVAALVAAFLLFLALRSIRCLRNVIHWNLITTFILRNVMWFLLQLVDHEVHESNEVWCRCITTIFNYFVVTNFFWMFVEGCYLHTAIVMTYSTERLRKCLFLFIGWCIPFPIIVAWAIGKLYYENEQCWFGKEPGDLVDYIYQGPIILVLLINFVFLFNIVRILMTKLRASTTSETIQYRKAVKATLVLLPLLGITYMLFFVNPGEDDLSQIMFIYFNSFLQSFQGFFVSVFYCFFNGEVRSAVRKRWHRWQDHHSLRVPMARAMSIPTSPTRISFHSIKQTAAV
The assay is described as follows: human CRHR2b cell-based cAMP assay. The protocol:
CRHR agonistic activity is measured in a cell-based cAMP assay. Serial dilutions of the test peptides are made in assay buffer containing Hank's Balanced Salt Solution (HBSS, without phenol red) supplemented with 20 mM HEPES and 0.05% lactalbumin enzymatic hydrolysate (LAH) (“assay buffer”). […] A one to three dilution of the test peptides is used in both assays. Receptor over-expressing Chinese Hamster Ovary (CHO) cell line is used for the human CRHR2b assay. […] AF011406.1). Forty-eight hours after the transfection, the cells are centrifuged to remove the culture media and resuspended in fetal bovine serum containing 5% DMSO. They are cryofrozen and stored in vials in liquid nitrogen (20×10^6 cells/ml/vial). On the day of the assay, cells are thawed and resuspended in cold 30 ml culture media supplemented with 20 mM HEPES. The cells are then centrifuged to remove the media and washed once with HBSS supplemented with 20 mM HEPES. Finally, following the last centrifugation, the cells are resuspended in assay buffer. Thirty-thousand cells are used in the human CRHR2b assay for each treatment. The cells are dispensed into Costar 96-well black polystyrene half area EIA/RIA plates (Corning Incorporated, Corning, N.Y.) followed by the addition of the diluted peptides, each at a volume of 20 μL. The agonist induced cAMP levels are detected using a HTRF cAMP Dynamic 2 kit (CisBio, Bedford, Mass.). After incubation at 37° C. for 30 min, the assay is stopped by cell lysis via the addition of 20 μL of d2-labeled cAMP and followed by 20 μL of cryptate-labeled anti-cAMP antibody, as described by the manufacturer. Cellular cAMP (as a result of agonist stimulation) competes with the d2-labeled cAMP for binding to the antibody. HTRF detection is performed on an Envision plate reader (Perkin Elmer Life and Analytical Sciences, Waltham, Mass.) by measuring ratiometric emission at 620 and 665 nm after excitation at 320 nm. The data are converted to picomoles of cAMP using a standard curve obtained from the same assay performed with varying concentrations of unlabeled cAMP. […] The data are analyzed using a Curve Fitting Tool to calculate ED50. Numeric values shown below in Table 1 represent the mean of multiple runs (number of runs shown in parentheses) following the mean value±SEM.
A general note: cAMP levels reflect the balance of adenylyl cyclase and phosphodiesterase activity.

Setting [1] is: cAMP assay, Table 26, compounds of Example 9, read-out: hCRHR2b Average EC50.

Five compounds from US10894817B2, “Fatty acid modified urocortin-2 analogs for the treatment of diabetes and chronic kidney disease” (priority 2016, dated 2021) can be followed below.

Read-outs that look alike come from different tables or passages of the source. Starred links: 1 amine or outer side, 2 acyl side, 3 side chain; linkers in the order of their positions; H or OH if unused. Residues, ends and D or L forms follow the SMILES beside them. Groups on a side chain read outwards from the residue. *: point of attachment. γGlu = O=C(O)[C@H](CCC(=O)[*:2])N[*:1]; Palmitoyl = CCCCCCCCCCCCCCCC(=O)*

Usually EC50 stands for the concentration giving half of the maximal effect. As to `CCCCCCCCCCCCCCCC(=O)N[C@@H](CCC(=O)NCCCC[C@H](NC(=O)[C@H](CCC(N)=O)NC(=O)[C@H](CC(C)C)NC(=O)[C@H](CC(C)C)NC(=O)CNC(=O)[C@@H](NC(=O)[C@@H]1CCCN1C(=O)[C@@H](NC(=O)[C@H](CC(=O)O)NC(=O)[C@H](CC(C)C)NC(=O)[C@H](CO)NC(=O)[C@H](CC(C)C)NC(=O)[C@@H](NC(=O)[C@@H](N)[C@@H](C)CC)C(C)C)C(C)C)[C@@H](C)CC)C(=O)N[C@@H](CC(C)C)C(=O)N[C@@H](CC(C)C)C(=O)N[C@@H](CCC(=O)O)C(=O)N[C@@H](CCC(N)=O)C(=O)N[C@@H](CCC(=O)O)C(=O)N[C@@H](CCCCN)C(=O)N[C@@H](CCC(N)=O)C(=O)N[C@@H](CCC(=O)O)C(=O)N[C@@H](CCCCN)C(=O)N[C@@H](CCC(=O)O)C(=O)N[C@@H](CCCCN)C(=O)N[C@@H](CCC(N)=O)C(=O)N[C@@H](CCC(N)=O)C(=O)N[C@@H](C)C(=O)N[C@H](C(=O)N[C@H](C(=O)N[C@@H](CC(N)=O)C(=O)N[C@@H](C)C(=O)N[C@@H](CCCNC(=N)N)C(=O)N[C@H](C(=O)N[C@@H](CC(C)C)C(=O)N[C@@H](C)C(=O)N[C@@H](CCCNC(=N)N)C(=O)N[C@H](C(N)=O)C(C)C)[C@@H](C)CC)[C@@H](C)O)[C@@H](C)O)C(=O)O` [Compound 21] (H-IVLSLDVPIGLLQK([γGlu-Palmitoyl])LLEQEKQEKEKQQATTNARILARV-NH2), the 50% effective concentration (EC50) under setting [1] amounted to 5.25 nM.

Regarding `CCCCCCCCCCCCCCCC(=O)N[C@@H](CCC(=O)NCCCC[C@H](NC(=O)[C@@H](NC(=O)[C@H](CCC(N)=O)NC(=O)[C@H](CC(C)C)NC(=O)[C@H](CC(C)C)NC(=O)CNC(=O)[C@@H](NC(=O)[C@@H]1CCCN1C(=O)[C@@H](NC(=O)[C@H](CC(=O)O)NC(=O)[C@H](CC(C)C)NC(=O)[C@H](CO)NC(=O)[C@H](CC(C)C)NC(=O)[C@@H](NC(=O)[C@@H](N)[C@@H](C)CC)C(C)C)C(C)C)[C@@H](C)CC)[C@@H](C)CC)C(=O)N[C@@H](CC(C)C)C(=O)N[C@@H](CCC(=O)O)C(=O)N[C@@H](CCC(N)=O)C(=O)N[C@@H](CCC(=O)O)C(=O)N[C@@H](CCCCN)C(=O)N[C@@H](CCC(N)=O)C(=O)N[C@@H](CCC(=O)O)C(=O)N[C@@H](CCCCN)C(=O)N[C@@H](CCC(=O)O)C(=O)N[C@@H](CCCCN)C(=O)N[C@@H](CCC(N)=O)C(=O)N[C@@H](CCC(N)=O)C(=O)N[C@@H](C)C(=O)N[C@H](C(=O)N[C@H](C(=O)N[C@@H](CC(N)=O)C(=O)N[C@@H](C)C(=O)N[C@@H](CCCNC(=N)N)C(=O)N[C@H](C(=O)N[C@@H](CC(C)C)C(=O)N[C@@H](C)C(=O)N[C@@H](CCCNC(=N)N)C(=O)N[C@H](C(N)=O)C(C)C)[C@@H](C)CC)[C@@H](C)O)[C@@H](C)O)C(=O)O` [Compound 22] (H-IVLSLDVPIGLLQIK([γGlu-Palmitoyl])LEQEKQEKEKQQATTNARILARV-NH2), the EC50 under setting [1] came out at 1.2 nM.

Take `CCCCCCCCCCCCCCCC(=O)N[C@@H](CCC(=O)NCCCC[C@H](NC(=O)[C@H](CC(C)C)NC(=O)[C@H](CC(C)C)NC(=O)[C@@H](NC(=O)[C@H](CCC(N)=O)NC(=O)[C@H](CC(C)C)NC(=O)[C@H](CC(C)C)NC(=O)CNC(=O)[C@@H](NC(=O)[C@@H]1CCCN1C(=O)[C@@H](NC(=O)[C@H](CC(=O)O)NC(=O)[C@H](CC(C)C)NC(=O)[C@H](CO)NC(=O)[C@H](CC(C)C)NC(=O)[C@@H](NC(=O)[C@@H](N)[C@@H](C)CC)C(C)C)C(C)C)[C@@H](C)CC)[C@@H](C)CC)C(=O)N[C@@H](CCC(N)=O)C(=O)N[C@@H](CCC(=O)O)C(=O)N[C@@H](CCCCN)C(=O)N[C@@H](CCC(N)=O)C(=O)N[C@@H](CCC(=O)O)C(=O)N[C@@H](CCCCN)C(=O)N[C@@H](CCC(=O)O)C(=O)N[C@@H](CCCCN)C(=O)N[C@@H](CCC(N)=O)C(=O)N[C@@H](CCC(N)=O)C(=O)N[C@@H](C)C(=O)N[C@H](C(=O)N[C@H](C(=O)N[C@@H](CC(N)=O)C(=O)N[C@@H](C)C(=O)N[C@@H](CCCNC(=N)N)C(=O)N[C@H](C(=O)N[C@@H](CC(C)C)C(=O)N[C@@H](C)C(=O)N[C@@H](CCCNC(=N)N)C(=O)N[C@H](C(N)=O)C(C)C)[C@@H](C)CC)[C@@H](C)O)[C@@H](C)O)C(=O)O` [Compound 23] (H-IVLSLDVPIGLLQILLK([γGlu-Palmitoyl])QEKQEKEKQQATTNARILARV-NH2): the EC50 was found to be 17.9 nM.

Consider `CCCCCCCCCCCCCCCC(=O)N[C@@H](CCC(=O)NCCCC[C@H](NC(=O)[C@H](CCC(N)=O)NC(=O)[C@H](CCC(=O)O)NC(=O)[C@H](CC(C)C)NC(=O)[C@H](CC(C)C)NC(=O)[C@@H](NC(=O)[C@H](CCC(N)=O)NC(=O)[C@H](CC(C)C)NC(=O)[C@H](CC(C)C)NC(=O)CNC(=O)[C@@H](NC(=O)[C@@H]1CCCN1C(=O)[C@@H](NC(=O)[C@H](CC(=O)O)NC(=O)[C@H](CC(C)C)NC(=O)[C@H](CO)NC(=O)[C@H](CC(C)C)NC(=O)[C@@H](NC(=O)[C@@H](N)[C@@H](C)CC)C(C)C)C(C)C)[C@@H](C)CC)[C@@H](C)CC)C(=O)N[C@@H](CCCCN)C(=O)N[C@@H](CCC(N)=O)C(=O)N[C@@H](CCC(=O)O)C(=O)N[C@@H](CCCCN)C(=O)N[C@@H](CCC(=O)O)C(=O)N[C@@H](CCCCN)C(=O)N[C@@H](CCC(N)=O)C(=O)N[C@@H](CCC(N)=O)C(=O)N[C@@H](C)C(=O)N[C@H](C(=O)N[C@H](C(=O)N[C@@H](CC(N)=O)C(=O)N[C@@H](C)C(=O)N[C@@H](CCCNC(=N)N)C(=O)N[C@H](C(=O)N[C@@H](CC(C)C)C(=O)N[C@@H](C)C(=O)N[C@@H](CCCNC(=N)N)C(=O)N[C@H](C(N)=O)C(C)C)[C@@H](C)CC)[C@@H](C)O)[C@@H](C)O)C(=O)O` [Compound 24, IVLSLDVPIGLLQILLEQK*KQEKEKQQATTNARILARV-NH2] (H-IVLSLDVPIGLLQILLEQK([γGlu-Palmitoyl])KQEKEKQQATTNARILARV-NH2), for which, under setting [1], the concentration giving a half-maximal response (EC50) was 25.3 nM.

Consider `CCCCCCCCCCCCCCCC(=O)N[C@@H](CCC(=O)NCCCC[C@H](NC(=O)[C@H](CCC(=O)O)NC(=O)[C@H](CCC(N)=O)NC(=O)[C@H](CCC(=O)O)NC(=O)[C@H](CC(C)C)NC(=O)[C@H](CC(C)C)NC(=O)[C@@H](NC(=O)[C@H](CCC(N)=O)NC(=O)[C@H](CC(C)C)NC(=O)[C@H](CC(C)C)NC(=O)CNC(=O)[C@@H](NC(=O)[C@@H]1CCCN1C(=O)[C@@H](NC(=O)[C@H](CC(=O)O)NC(=O)[C@H](CC(C)C)NC(=O)[C@H](CO)NC(=O)[C@H](CC(C)C)NC(=O)[C@@H](NC(=O)[C@@H](N)[C@@H](C)CC)C(C)C)C(C)C)[C@@H](C)CC)[C@@H](C)CC)C(=O)N[C@@H](CCC(N)=O)C(=O)N[C@@H](CCC(=O)O)C(=O)N[C@@H](CCCCN)C(=O)N[C@@H](CCC(=O)O)C(=O)N[C@@H](CCCCN)C(=O)N[C@@H](CCC(N)=O)C(=O)N[C@@H](CCC(N)=O)C(=O)N[C@@H](C)C(=O)N[C@H](C(=O)N[C@H](C(=O)N[C@@H](CC(N)=O)C(=O)N[C@@H](C)C(=O)N[C@@H](CCCNC(=N)N)C(=O)N[C@H](C(=O)N[C@@H](CC(C)C)C(=O)N[C@@H](C)C(=O)N[C@@H](CCCNC(=N)N)C(=O)N[C@H](C(N)=O)C(C)C)[C@@H](C)CC)[C@@H](C)O)[C@@H](C)O)C(=O)O` [Compound 25] (H-IVLSLDVPIGLLQILLEQEK([γGlu-Palmitoyl])QEKEKQQATTNARILARV-NH2), for which the EC50 under setting [1] was 63.5 nM.
